Assay results published in ChEMBL document CHEMBL3244250, “Bisamidines of 2,6-diaminoanthraquinone as antiamebic agents” (J Med Chem, 1978).
Activity calls are given as the source filed them. The rule behind the calls is not given here.

How the values were obtained:
Entamoeba histolytica [1] = assay: Antimicrobial activity against Entamoeba histolytica NIH 200-mu cecal forms infected in Wistar albino rat assessed as cure rate administered qd for 5 days by microscopic analysis; type: functional; conditions: for minimal effective dose: 120 h, read-out: MED
Entamoeba histolytica [2] = assay: Antimicrobial activity against Entamoeba histolytica NIH 200-mu hepatic forms infected in golden hamster assessed as survival rate administered qd for 5 days measured up to 14 days by microscopic analysis; type: functional; conditions: for minimal effective dose: read-out: MED
Rattus norvegicus [3] = assay: Toxicity in Wistar albino rat assessed as general listlessness up to 150 mg/kg administered qd for 5 days; type: organism-based; design: dose 150 mg/kg; conditions: in vivo, 120 h
Rattus norvegicus [4] = assay: Toxicity in Wistar albino rat assessed as reduction in water and food intake up to 150 mg/kg administered qd for 5 days; type: organism-based; design: dose 150 mg/kg; conditions: in vivo, 120 h
Syrian golden hamster [5] = assay: Toxicity in golden hamster assessed as general listlessness up to 150 mg/kg administered qd for 5 days; type: organism-based, Mesocricetus auratus; design: dose 150 mg/kg; conditions: in vivo, 120 h
Syrian golden hamster [6] = assay: Toxicity in golden hamster assessed as reduction in water and food intake up to 150 mg/kg administered qd for 5 days; type: organism-based, Mesocricetus auratus; design: dose 150 mg/kg; conditions: in vivo, 120 h
Rattus norvegicus [7] = assay: Toxicity in Wistar albino rat assessed as general listlessness administered qd for 5 days; type: organism-based; conditions: in vivo, 120 h
Rattus norvegicus [8] = assay: Toxicity in Wistar albino rat assessed as reduction in water and food intake administered qd for 5 days; type: organism-based; conditions: in vivo, 120 h
Syrian golden hamster [9] = assay: Toxicity in golden hamster assessed as general listlessness administered qd for 5 days; type: organism-based, Mesocricetus auratus; conditions: in vivo, 120 h
Syrian golden hamster [10] = assay: Toxicity in golden hamster assessed as reduction in water and food intake administered qd for 5 days; type: organism-based, Mesocricetus auratus; conditions: in vivo, 120 h
Salmonella typhimurium = assay: Mutagenic activity in Salmonella typhimurium by Ames test; type: toxicity, organism-based; conditions: salmonella enterica subsp. enterica serovar typhimurium

SMILES | minimal effective dose (Entamoeba histolytica [1]) | minimal effective dose (Entamoeba histolytica [2]) | Activity (Entamoeba histolytica [2]) | Activity (Rattus norvegicus [3]) | Activity (Rattus norvegicus [4]) | Activity (Syrian golden hamster [5]) | Activity (Syrian golden hamster [6]) | other results
CC(C)C/C(=N\c1ccc2c(c1)C(=O)c1ccc(/N=C(\CC(C)C)N(C)C)cc1C2=O)N(C)C | 20 mg/kg | 50 mg/kg | – | – | – | – | – | –
CC/C(=N\c1ccc2c(c1)C(=O)c1ccc(/N=C(\CC)N3CCCCC3)cc1C2=O)N1CCCCC1 | 50 mg/kg | – | inactive | Non-toxic | Non-toxic | Non-toxic | Non-toxic | –
O=C1c2ccc(/N=C(\c3ccccc3)N3CCCCC3)cc2C(=O)c2ccc(/N=C(\c3ccccc3)N3CCCCC3)cc21 | 10 mg/kg | – | inactive | – | – | – | – | –
CC(C)N(/C=N/c1ccc2c(c1)C(=O)c1ccc(/N=C/N(C(C)C)C(C)C)cc1C2=O)C(C)C | 20 mg/kg | 100 mg/kg | – | – | – | – | – | Activity (Rattus norvegicus [7]): Toxic; Activity (Rattus norvegicus [8]): Toxic; Activity (Syrian golden hamster [9]): Toxic; Activity (Syrian golden hamster [10]): Toxic
O=C1c2ccc(N/C3=N/CCCCCC3)cc2C(=O)c2ccc(N/C3=N/CCCCCC3)cc21 | 20 mg/kg | – | inactive | Non-toxic | Non-toxic | Non-toxic | Non-toxic | –
CCN/C(C)=N/c1ccc2c(c1)C(=O)c1ccc(/N=C(\C)NCC)cc1C2=O | 10 mg/kg | – | inactive | Non-toxic | Non-toxic | Non-toxic | Non-toxic | –
CCCCCCCCN(C)/C=N/c1ccc2c(c1)C(=O)c1ccc(/N=C/N(C)CCCCCCCC)cc1C2=O | 50 mg/kg | – | inactive | – | – | – | – | Activity (Rattus norvegicus [7]): Toxic; Activity (Rattus norvegicus [8]): Toxic; Activity (Syrian golden hamster [9]): Toxic; Activity (Syrian golden hamster [10]): Toxic
CCN(CC)/C(=N/c1ccc2c(c1)C(=O)c1ccc(/N=C(/N(CC)CC)C(C)(C)C)cc1C2=O)C(C)(C)C | 20 mg/kg | 50 mg/kg | – | – | – | – | – | –
CCN(CC)/C(C)=N/c1ccc2c(c1)C(=O)c1ccc(/N=C(\C)N(CC)CC)cc1C2=O | 10 mg/kg | 2.5 mg/kg | – | Non-toxic | Non-toxic | Non-toxic | Non-toxic | Activity (Salmonella typhimurium): Non-toxic
CCN(CC)/C(=N/c1ccc2c(c1)C(=O)c1ccc(/N=C(\C3CC3)N(CC)CC)cc1C2=O)C1CC1 | 20 mg/kg | – | inactive | – | – | – | – | –
CN(C)/C(=N/c1ccc2c(c1)C(=O)c1ccc(/N=C(\c3ccc(Cl)cc3)N(C)C)cc1C2=O)c1ccc(Cl)cc1 | 20 mg/kg | 50 mg/kg | – | – | – | – | – | Activity (Salmonella typhimurium): Non-toxic
CCC/C(=N\c1ccc2c(c1)C(=O)c1ccc(/N=C(\CCC)N(C)C)cc1C2=O)N(C)C | 20 mg/kg | 50 mg/kg | – | – | – | – | – | –
CCN(CC)/C(C)=N\c1ccc(/N=C(/C)N(CC)CC)c2c1C(=O)c1ccccc1C2=O | – | – | inactive | – | – | – | – | Activity (Entamoeba histolytica [1]): inactive
CCN(C(C)=O)/C(C)=N/c1ccc2c(c1)C(=O)c1ccc(/N=C(\C)N(CC)C(C)=O)cc1C2=O | – | – | inactive | Non-toxic | Non-toxic | Non-toxic | Non-toxic | Activity (Entamoeba histolytica [1]): inactive
CN(C)/C=N\c1ccc(/N=C\N(C)C)c2c1C(=O)c1ccccc1C2=O | – | – | inactive | – | – | – | – | Activity (Entamoeba histolytica [1]): inactive
CCCCN(C)/C(CC)=N/c1ccc2c(c1)C(=O)c1ccc(/N=C(\CC)N(C)CCCC)cc1C2=O | 20 mg/kg | 50 mg/kg | – | Non-toxic | Non-toxic | Non-toxic | Non-toxic | –
CN(C)/C=N/c1ccc2c(c1)C(=O)c1ccc(/N=C/N(C)C)cc1C2=O | 20 mg/kg | 10 mg/kg | – | – | – | – | – | Activity (Rattus norvegicus [7]): Toxic; Activity (Rattus norvegicus [8]): Toxic; Activity (Syrian golden hamster [9]): Toxic; Activity (Syrian golden hamster [10]): Toxic

SMILES | minimal effective dose (Entamoeba histolytica [1]) | minimal effective dose (Entamoeba histolytica [2]) | Activity (Entamoeba histolytica [2]) | Activity (Rattus norvegicus [3]) | Activity (Rattus norvegicus [4]) | Activity (Syrian golden hamster [5]) | Activity (Syrian golden hamster [6]) | other results
C/C(=N/c1cccc2c1C(=O)c1cccc(/N=C(/C)N(C)C)c1C2=O)N(C)C | – | – | inactive | – | – | – | – | Activity (Entamoeba histolytica [1]): inactive
CC/C(=N\c1ccc2c(c1)C(=O)c1ccc(/N=C(\CC)N3CCN(C)CC3)cc1C2=O)N1CCN(C)CC1 | 20 mg/kg | – | inactive | Non-toxic | Non-toxic | Non-toxic | Non-toxic | –
CC/C(=N\c1ccc2c(c1)C(=O)c1ccc(/N=C(\CC)N(C)C)cc1C2=O)N(C)C | 10 mg/kg | 2.5 mg/kg | – | Non-toxic | Non-toxic | Non-toxic | Non-toxic | –
CC/C(N)=N\c1ccc2c(c1)C(=O)c1ccc(/N=C(/N)CC)cc1C2=O | – | – | inactive | Non-toxic | Non-toxic | Non-toxic | Non-toxic | Activity (Entamoeba histolytica [1]): inactive
Cc1ncc([N+](=O)[O-])n1CCO [METRONIDAZOLE] | 10 mg/kg | 10 mg/kg | – | – | – | – | – | –
CN(C)/C=N/c1ccc2c(c1)C(=O)c1ccccc1C2=O | – | – | inactive | – | – | – | – | Activity (Entamoeba histolytica [1]): inactive; Activity (Rattus norvegicus [7]): Toxic; Activity (Rattus norvegicus [8]): Toxic; Activity (Syrian golden hamster [9]): Toxic; Activity (Syrian golden hamster [10]): Toxic
C/C(=N\c1ccc2c(c1)C(=O)c1ccc(/N=C(\C)N3CCCCC3)cc1C2=O)N1CCCCC1 | 50 mg/kg | 100 mg/kg | – | Non-toxic | Non-toxic | Non-toxic | Non-toxic | –
O=[N+]([O-])c1cncn1CCN1CCOCC1 [NIMORAZOLE] | 20 mg/kg | 100 mg/kg | – | – | – | – | – | –
CN(C)/C(=N/c1ccc2c(c1)C(=O)c1ccc(/N=C(\C3CC3)N(C)C)cc1C2=O)C1CC1 | 10 mg/kg | 50 mg/kg | – | – | – | – | – | Activity (Salmonella typhimurium): Non-toxic
C/C(=N\c1ccc2c(c1)C(=O)c1ccc(/N=C(\C)N(C)C)cc1C2=O)N(C)C | 5 mg/kg | 2.5 mg/kg | – | Non-toxic | Non-toxic | Non-toxic | Non-toxic | Activity (Salmonella typhimurium): Non-toxic
C/C(N)=N\c1ccc2c(c1)C(=O)c1ccc(/N=C(\C)N)cc1C2=O | 10 mg/kg | – | inactive | Non-toxic | Non-toxic | Non-toxic | Non-toxic | –
CN(C)/C=N\c1cccc2c1C(=O)c1cccc(/N=C\N(C)C)c1C2=O | – | – | inactive | – | – | – | – | Activity (Entamoeba histolytica [1]): inactive
CN(C)/C(=N/c1ccc2c(c1)C(=O)c1ccc(/N=C(\C3CCC3)N(C)C)cc1C2=O)C1CCC1 | 20 mg/kg | 50 mg/kg | – | – | – | – | – | Activity (Salmonella typhimurium): Non-toxic
CCS(=O)(=O)CCn1c([N+](=O)[O-])cnc1C [TINIDAZOLE] | 5 mg/kg | 25 mg/kg | – | – | – | – | – | –
O=C1c2ccc(/N=C/N3CCCCC3)cc2C(=O)c2ccc(/N=C/N3CCCCC3)cc21 | 20 mg/kg | 100 mg/kg | – | – | – | – | – | Activity (Rattus norvegicus [7]): Toxic; Activity (Rattus norvegicus [8]): Toxic; Activity (Syrian golden hamster [9]): Toxic; Activity (Syrian golden hamster [10]): Toxic
CN/C(C)=N/c1ccc2c(c1)C(=O)c1ccc(/N=C(\C)NC)cc1C2=O | 10 mg/kg | – | inactive | Non-toxic | Non-toxic | Non-toxic | Non-toxic | –
